≈ marks a conversion by molar mass, not a printed value. Calls of active or inactive are those of the source. No cut-off for these calls is given here.
Legend:
[1] = biological target: T1, Carboxylesterase/lipase Culp6 (Mycobacterium tuberculosis (strain ATCC 25618 / H37Rv), UniProt O53581); experiment: (§1) Inhibition of recombinant Mycobacterium tuberculosis H37Rv ATCC 25618 Rv3802c expressed in Escherichia coli T7 assessed as residual activity by measuring hydrolysis of resorufin butyrate at 200 uM using resorufin butyrate as substrate preincubated for 15 mins followed by substrate addition by relative to control; conditions: read-out: Activity
T1 sequence (O53581 whole entry): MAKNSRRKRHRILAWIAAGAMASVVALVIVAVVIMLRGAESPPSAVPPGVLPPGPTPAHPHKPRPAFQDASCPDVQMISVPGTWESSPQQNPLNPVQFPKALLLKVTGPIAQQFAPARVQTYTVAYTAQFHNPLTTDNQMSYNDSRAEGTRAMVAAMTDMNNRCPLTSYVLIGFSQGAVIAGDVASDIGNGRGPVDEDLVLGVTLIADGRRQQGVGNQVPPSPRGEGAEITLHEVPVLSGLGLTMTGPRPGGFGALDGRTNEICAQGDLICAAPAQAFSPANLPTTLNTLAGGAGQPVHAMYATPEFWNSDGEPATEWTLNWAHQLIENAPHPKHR

[2] = biological target: T1, Carboxylesterase/lipase Culp6; experiment: as §1, with “500” for “200”, “addition” for “addition by”; conditions: for activity at 500 µM: read-out: Activity
[3] = tested on: Mycobacterium tuberculosis H37Rv; experiment: Inhibition of recombinant Mycobacterium tuberculosis H37Rv ATCC 25618 mycolyltransferase expressed in Escherichia coli T7 at 500 uM using resorufin butyrate as substrate preincubated for 15 mins followed by substrate addition by fluorimetric assay
[4] = tested on: Mycobacterium tuberculosis; experiment: Antimycobacterial activity against Mycobacterium tuberculosis H37Rv mc2 6206 after 7 days by resazurin microtiter assay; format: functional; conditions: H37Rv mc2 6206, 168 h
[5] = tested on: Mycobacterium tuberculosis; experiment: Antimycobacterial activity against Mycobacterium tuberculosis H37Ra ATCC 25177 after 7 days by resazurin microtiter assay; format: functional; conditions: H37Ra ATCC 25177, 168 h
[6] = tested on: Mycobacteroides abscessus; experiment: Antimycobacterial activity against Mycobacterium abscessus ATCC 19977 after 7 days by resazurin microtiter assay; format: functional; conditions: ATCC 19977, 168 h
[7] = tested on: Mycolicibacterium smegmatis; experiment: Antimycobacterial activity against Mycobacterium smegmatis mc2 155 after 7 days by resazurin microtiter assay; format: functional; conditions: MC2 155, 168 h
L929 = experiment: Cytotoxicity against murine L929 assessed as reduction in cell viability after 24 hrs by MTT assay; format: cell-based; conditions: Mus musculus, L929, 24 h
[8] = Selectivity index, ratio of IC50 for murine L929 cells to MIC for Mycobacterium tuberculosis H37Rv mc2 6206; format: toxicity; conditions: mouse, read-out: Selectivity Index
[9] = Selectivity index, ratio of IC50 for murine L929 cells to MIC for Mycobacterium tuberculosis H37Ra ATCC 25177; format: toxicity; conditions: mouse, read-out: Selectivity Index
[10] = tested on: Mycobacterium tuberculosis H37Rv; experiment: as §1, with “ATCC 25618 mycolyltransferase expressed in” for “ATCC 25618 Rv3802c expressed in”, “addition by fluorimetric assay relative to” for “addition by relative to”
[11] = biological target: T1, Carboxylesterase/lipase Culp6; experiment: Inhibition of recombinant Mycobacterium tuberculosis H37Rv ATCC 25618 Rv3802c cutinase expressed in Escherichia coli T7 at 500 uM using resorufin butyrate as substrate preincubated for 15 mins followed by substrate addition relative to control
[12] = biological target: T1, Carboxylesterase/lipase Culp6; experiment: Inhibition of recombinant Mycobacterium tuberculosis H37Rv ATCC 25618 Rv3802c cutinase expressed in Escherichia coli T7 assessed as inhibition constant using resorufin butyrate as substrate preincubated for 15 mins followed by substrate addition

SMILES | activity at 200 µM [1] [%] | activity at 500 µM [2] [%] | inhibition [3] | also measured
O=C(NCC1CCCCC1)n1nnc2ccccc21 | 43 |  |  | 
O=C(NCc1nc2ccccc2[nH]1)Nc1cc(F)cc(F)c1 | 20 |  |  | 
O=C(NCC1CCCCC1)Nc1ccccc1 |  | 53 | inactive | 
O=C(NCC1CCCCC1)Nc1cc(F)cc(F)c1 |  | 72.5 |  | MIC [4]: 3.12 µM (≈ 0.837 µg/mL); MIC [5]: 25 µM (≈ 6.71 µg/mL); MIC [6]: 25 µM (≈ 6.71 µg/mL); MIC [7]: 62.5 µM (≈ 16.8 µg/mL); IC50 (L929): 70 µM; selectivity ratio [8]: > 20; selectivity ratio [9]: > 20
O=C(Nc1ccccc1)N1CCCCC1 |  | 43 | inactive | 
O=C(NCC1CCCCC1)Nc1ccc(Br)cc1 |  | 100 |  | 
O=C(NCC1CCCCC1)Nc1ccc(C(F)(F)F)cc1 |  | 83.6 |  | MIC [4]: 1.5 µM (≈ 0.45 µg/mL); MIC [5]: 12.5 µM (≈ 3.75 µg/mL); MIC [6]: > 100 µM; MIC [7]: > 100 µM; IC50 (L929): 56 µM; selectivity ratio [8]: > 20; selectivity ratio [9]: > 20
O=C(Nc1cc(F)cc(F)c1)N(Cc1ccco1)Cc1ccco1 | 100 |  |  | 
O=C(NCc1ccco1)n1nnc2ccccc21 | 44 |  |  | Activity [10]: 80%
O=C(Nc1ccccc1)NC1CCCCC1 |  | 84.3 | inactive | 
O=C(Nc1ccccc1)NC1CCCC1 |  | 56.2 | inactive | 
O=C(NCCc1ccccc1)Nc1ccccc1 |  | 73.1 | inactive | 
O=C(NCC1CCCCC1)Nc1ccc(F)cc1 |  | 66 |  | 
O=C(NCc1ncc[nH]1)Nc1cc(F)cc(F)c1 | 100 |  |  | 
O=C(NCc1ccco1)Nc1ccc(C(F)(F)F)cc1 |  | 82 |  | 
O=C(NCc1ccco1)Nc1ccccc1 |  | 38.2 | inactive | 
O=C(NCc1cccs1)Nc1ccccc1 |  | 50.5 | inactive | 
O=C(NCC1CCCCC1)Nc1ccc([N+](=O)[O-])cc1 |  |  |  | Activity ([2]; 500 µM): Active; MIC [4]: 3.12 µM (≈ 0.865 µg/mL); MIC [5]: 25 µM (≈ 6.93 µg/mL); MIC [6]: > 100 µM; MIC [7]: 15.6 µM (≈ 4.33 µg/mL); IC50 (L929): 57 µM; selectivity ratio [8]: > 20; selectivity ratio [9]: > 20
O=C(NCc1ccco1)n1ccnn1 | 72.5 |  |  | Activity [10]: 14%
O=C(Nc1cc(F)cc(F)c1)N(Cc1ccc(F)cc1)Cc1ccco1 | 100 |  |  | 
CSc1nncn1C(=O)NCC1CCCCC1 | 40 |  |  | 
O=C(NCc1ccco1)Nc1ccc(F)cc1 |  | 54.9 |  | 
O=C(NCc1ccco1)Nc1cc(F)cc(F)c1 |  | 13 |  | inhibition at 500 µM [11]: 88%; Ki [12]: 5.2 µM

Reference: ChEMBL document CHEMBL4311933, “Biochemical and microbiological evaluation of N-aryl urea derivatives against mycobacteria and mycobacterial hydrolases” (Medchemcomm, 2019)
